Measured values: US20230365592A1 (Agios Pharmaceuticals, Inc., priority 2022, published 2023)

biological target: T1, human PAH with the R408W mutation (Homo sapiens, UniProt P00439, R408W); assay: Cell Based Phenylalanine Flux Assay; conditions: A375 cells expressing R408W PAH; 24 hrs with compound, then 20 µM sepiapterin and 800 µM 13C9,15N-Phenylalanine for 4 hours; 13C-Tyrosine by LC-MS; average where tested multiple times; read-out: AC50;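 also: after compound treatment, cells received sepiapterin plus isotope-labelled Phenylalanine for 4 hours, then labelled Tyrosine in the medium was quantified, 10-point 2-fold dilution series run in duplicate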
T1 construct: expressed in transfected cells
T1 sequence (P00439 1-452 R408W): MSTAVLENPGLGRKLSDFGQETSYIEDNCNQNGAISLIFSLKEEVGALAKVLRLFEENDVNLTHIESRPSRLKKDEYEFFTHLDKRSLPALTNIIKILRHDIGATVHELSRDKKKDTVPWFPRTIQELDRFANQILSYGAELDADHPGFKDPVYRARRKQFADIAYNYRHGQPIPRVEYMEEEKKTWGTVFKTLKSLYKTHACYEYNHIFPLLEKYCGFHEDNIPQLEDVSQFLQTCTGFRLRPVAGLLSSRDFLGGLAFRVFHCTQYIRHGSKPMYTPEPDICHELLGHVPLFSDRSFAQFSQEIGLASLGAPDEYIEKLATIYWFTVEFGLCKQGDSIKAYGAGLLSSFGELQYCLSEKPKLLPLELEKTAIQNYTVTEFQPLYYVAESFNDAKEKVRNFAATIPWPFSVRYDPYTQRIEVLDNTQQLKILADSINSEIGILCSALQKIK

Row | Compound | AC50
1 | O=C(c1cnco1)N1CCc2[nH]cnc2C1c1cc2cc(C(F)(F)F)ccn2n1 (stereo not drawn) | > 5000 nM
2 | Cc1ccc2cc(C3c4nc[nH]c4CCN3C(=O)c3nnc(C)o3)nn2c1 (stereo not drawn) | 1000 to 5000 nM

same assay, conditions: A375 cells expressing human PAH R408W; 24 hrs compound incubation; 13C-Tyrosine by LC-MS; average where tested multiple times; read-out: AC50

Row | Compound | AC50
3 | CC(C)c1cccn2nc([C@H]3c4nc[nH]c4CCN3C(=O)c3nnc(C(C)(C)F)o3)cc12 [Example 1885, (R)-(5-(2-fluoropropan-2-yl)-1,3,4-oxadiazol-2-yl)(4-(4-isopropylpyrazolo[1,5-a]pyridin-2-yl)-1,4,6,7-tetrahydro-5H-imidazo[4,5-c]pyridin-5-yl)methanone] | > 5000 nM
4 | Cc1ncccc1-c1nnc(N2CCc3[nH]cnc3[C@H]2c2cc3cccc(C)n3n2)o1 [Example 2332, (S)-2-(4-(7-methylpyrazolo[1,5-a]pyridin-2-yl)-1,4,6,7-tetrahydro-5H-imidazo[4,5-c]pyridin-5-yl)-5-(2-methylpyridin-3-yl)-1,3,4-oxadiazole] | 500 to 1000 nM
5 | O=C(c1cnc(-c2cnccn2)o1)N1CCc2[nH]cnc2[C@@H]1c1cc2c(C(F)(F)F)cccn2n1 [Example 2245, (R)-(2-(pyrazin-2-yl)oxazol-5-yl)(4-(4-(trifluoromethyl)pyrazolo[1,5-a]pyridin-2-yl)-1,4,6,7-tetrahydro-5H-imidazo[4,5-c]pyridin-5-yl)methanone] | > 5000 nM

same assay, conditions: A375 cells expressing human R408W PAH; 24 hrs compound incubation; 13C-Tyrosine by LC-MS; average where tested multiple times; read-out: AC50

Row | Compound | AC50
6 | CC(C)(O)c1nc(C(F)F)c(C(=O)N2CCc3[nH]cnc3[C@H]2c2cc3cccc(C(F)(F)F)n3n2)o1 [Example 1156, (S)-(4-(difluoromethyl)-2-(2-hydroxypropan-2-yl)oxazol-5-yl)(4-(7-(trifluoromethyl)pyrazolo[1,5-a]pyridin-2-yl)-6,7-dihydro-1H-imidazo[4,5-c]pyridin-5(4H)-yl)methanone] | < 500 nM
7 | O=C(c1nnc(-c2ccn(C(F)(F)F)n2)o1)N1CCc2[nH]cnc2[C@@H]1c1cc2cccc(F)n2n1 [Example 1475, (R)-(4-(7-fluoropyrazolo[1,5-a]pyridin-2-yl)-6,7-dihydro-1H-imidazo[4,5-c]pyridin-5(4H)-yl)(5-(1-(trifluoromethyl)-1H-pyrazol-3-yl)-1,3,4-oxadiazol-2-yl)methanone] | 1000 to 5000 nM
8 | O=C(c1nnc(C2CCC2)o1)N1CCc2[nH]cnc2[C@@H]1c1cc2cccc(Cl)n2n1 [Example 1560, (R)-(4-(7-chloropyrazolo[1,5-a]pyridin-2-yl)-6,7-dihydro-1H-imidazo[4,5-c]pyridin-5(4H)-yl)(5-cyclobutyl-1,3,4-oxadiazol-2-yl)methanone] | > 5000 nM
9 | COc1cccn2nc([C@@H]3c4nc[nH]c4CCN3C(=O)c3cnco3)cc12 [Example 1166, (S)-(4-(4-methoxypyrazolo[1,5-a]pyridin-2-yl)-6,7-dihydro-1H-imidazo[4,5-c]pyridin-5(4H)-yl)(oxazol-5-yl)methanone] | 500 to 1000 nM
10 | O=C(c1nnc(-c2ccn(C(F)F)n2)o1)N1CCc2[nH]cnc2[C@H]1c1cc2c(C(F)F)cccn2n1 [Example 1377, (S)-(5-(1-(difluoromethyl)-1H-pyrazol-3-yl)-1,3,4-oxadiazol-2-yl)(4-(4-(difluoromethyl)pyrazolo[1,5-a]pyridin-2-yl)-6,7-dihydro-1H-imidazo[4,5-c]pyridin-5(4H)-yl)methanone] | < 500 nM
11 | O=C(c1nnc(-c2ncccc2F)o1)N1CCc2[nH]cnc2[C@@H]1c1cc2cccc(C(F)F)n2n1 [Example 1581, (R)-(4-(7-(difluoromethyl)pyrazolo[1,5-a]pyridin-2-yl)-6,7-dihydro-1H-imidazo[4,5-c]pyridin-5(4H)-yl)(5-(3-fluoropyridin-2-yl)-1,3,4-oxadiazol-2-yl)methanone] | > 5000 nM
12 | Cc1c(-c2nnc(C(=O)N3CCc4[nH]cnc4[C@@H]3c3cc4c(C(F)(F)F)cccn4n3)o2)cnn1C [Example 1205, (R)-(5-(1,5-dimethyl-1H-pyrazol-4-yl)-1,3,4-oxadiazol-2-yl)(4-(4-(trifluoromethyl)pyrazolo[1,5-a]pyridin-2-yl)-6,7-dihydro-1H-imidazo[4,5-c]pyridin-5(4H)-yl)methanone] | > 5000 nM
